Active and inactive are the calls of the source. The calls are words filed in the database; no cut-off is given here.
Tests used:
[1] = Oral bioavailability in nu/nu mouse at 100 mg/kg by LC-MS/MS analysis; assay type: ADME, organism-based; conditions: in vivo
[2] = biological target: Cytochrome P450 2C9 (Homo sapiens, UniProt P11712); assay: Inhibition of CYP2C9 in human liver microsomes assessed as formation of 7-hydroxywarfarin from warfarin measured after 30 mins in presence of NADPH by LC-MS/MS analysis; assay type: ADME; conditions: 0.5 h
[3] = biological target: Cytochrome P450 3A4 (Homo sapiens, UniProt P08684); assay: Inhibition of CYP3A4 in human liver microsomes assessed as formation of 1-hydroxymidazolam from midazolam measured after 10 mins in presence of NADPH by LC-MS/MS analysis; assay type: ADME
[4] = biological target: Cytochrome P450 1A2 (Homo sapiens, UniProt P05177); assay: Inhibition of CYP1A2 in human liver microsomes assessed as formation of acetaminophen from phenacetin measured after 30 mins in presence of NADPH by LC-MS/MS analysis; assay type: ADME; conditions: 0.5 h
[5] = biological target: Cytochrome P450 2D6 (Homo sapiens, UniProt P10635); assay: Inhibition of CYP2D6 in human liver microsomes assessed as formation of dextrophan from dextromethorphan measured after 10 mins in presence of NADPH by LC-MS/MS analysis; assay type: ADME
[6] = biological target: T1, CREB-binding protein/Histone acetyltransferase p300 (Homo sapiens, UniProt Q09472+Q92793); assay: Inhibition of CBP/EP300 in human MOLM16 cells assessed as suppression of MYB expression at 5 uM measured after 4 hrs by RT-PCR analysis relative to DMSO control; assay type: cell-based
T1 sequence (Q09472 whole entry, looked up): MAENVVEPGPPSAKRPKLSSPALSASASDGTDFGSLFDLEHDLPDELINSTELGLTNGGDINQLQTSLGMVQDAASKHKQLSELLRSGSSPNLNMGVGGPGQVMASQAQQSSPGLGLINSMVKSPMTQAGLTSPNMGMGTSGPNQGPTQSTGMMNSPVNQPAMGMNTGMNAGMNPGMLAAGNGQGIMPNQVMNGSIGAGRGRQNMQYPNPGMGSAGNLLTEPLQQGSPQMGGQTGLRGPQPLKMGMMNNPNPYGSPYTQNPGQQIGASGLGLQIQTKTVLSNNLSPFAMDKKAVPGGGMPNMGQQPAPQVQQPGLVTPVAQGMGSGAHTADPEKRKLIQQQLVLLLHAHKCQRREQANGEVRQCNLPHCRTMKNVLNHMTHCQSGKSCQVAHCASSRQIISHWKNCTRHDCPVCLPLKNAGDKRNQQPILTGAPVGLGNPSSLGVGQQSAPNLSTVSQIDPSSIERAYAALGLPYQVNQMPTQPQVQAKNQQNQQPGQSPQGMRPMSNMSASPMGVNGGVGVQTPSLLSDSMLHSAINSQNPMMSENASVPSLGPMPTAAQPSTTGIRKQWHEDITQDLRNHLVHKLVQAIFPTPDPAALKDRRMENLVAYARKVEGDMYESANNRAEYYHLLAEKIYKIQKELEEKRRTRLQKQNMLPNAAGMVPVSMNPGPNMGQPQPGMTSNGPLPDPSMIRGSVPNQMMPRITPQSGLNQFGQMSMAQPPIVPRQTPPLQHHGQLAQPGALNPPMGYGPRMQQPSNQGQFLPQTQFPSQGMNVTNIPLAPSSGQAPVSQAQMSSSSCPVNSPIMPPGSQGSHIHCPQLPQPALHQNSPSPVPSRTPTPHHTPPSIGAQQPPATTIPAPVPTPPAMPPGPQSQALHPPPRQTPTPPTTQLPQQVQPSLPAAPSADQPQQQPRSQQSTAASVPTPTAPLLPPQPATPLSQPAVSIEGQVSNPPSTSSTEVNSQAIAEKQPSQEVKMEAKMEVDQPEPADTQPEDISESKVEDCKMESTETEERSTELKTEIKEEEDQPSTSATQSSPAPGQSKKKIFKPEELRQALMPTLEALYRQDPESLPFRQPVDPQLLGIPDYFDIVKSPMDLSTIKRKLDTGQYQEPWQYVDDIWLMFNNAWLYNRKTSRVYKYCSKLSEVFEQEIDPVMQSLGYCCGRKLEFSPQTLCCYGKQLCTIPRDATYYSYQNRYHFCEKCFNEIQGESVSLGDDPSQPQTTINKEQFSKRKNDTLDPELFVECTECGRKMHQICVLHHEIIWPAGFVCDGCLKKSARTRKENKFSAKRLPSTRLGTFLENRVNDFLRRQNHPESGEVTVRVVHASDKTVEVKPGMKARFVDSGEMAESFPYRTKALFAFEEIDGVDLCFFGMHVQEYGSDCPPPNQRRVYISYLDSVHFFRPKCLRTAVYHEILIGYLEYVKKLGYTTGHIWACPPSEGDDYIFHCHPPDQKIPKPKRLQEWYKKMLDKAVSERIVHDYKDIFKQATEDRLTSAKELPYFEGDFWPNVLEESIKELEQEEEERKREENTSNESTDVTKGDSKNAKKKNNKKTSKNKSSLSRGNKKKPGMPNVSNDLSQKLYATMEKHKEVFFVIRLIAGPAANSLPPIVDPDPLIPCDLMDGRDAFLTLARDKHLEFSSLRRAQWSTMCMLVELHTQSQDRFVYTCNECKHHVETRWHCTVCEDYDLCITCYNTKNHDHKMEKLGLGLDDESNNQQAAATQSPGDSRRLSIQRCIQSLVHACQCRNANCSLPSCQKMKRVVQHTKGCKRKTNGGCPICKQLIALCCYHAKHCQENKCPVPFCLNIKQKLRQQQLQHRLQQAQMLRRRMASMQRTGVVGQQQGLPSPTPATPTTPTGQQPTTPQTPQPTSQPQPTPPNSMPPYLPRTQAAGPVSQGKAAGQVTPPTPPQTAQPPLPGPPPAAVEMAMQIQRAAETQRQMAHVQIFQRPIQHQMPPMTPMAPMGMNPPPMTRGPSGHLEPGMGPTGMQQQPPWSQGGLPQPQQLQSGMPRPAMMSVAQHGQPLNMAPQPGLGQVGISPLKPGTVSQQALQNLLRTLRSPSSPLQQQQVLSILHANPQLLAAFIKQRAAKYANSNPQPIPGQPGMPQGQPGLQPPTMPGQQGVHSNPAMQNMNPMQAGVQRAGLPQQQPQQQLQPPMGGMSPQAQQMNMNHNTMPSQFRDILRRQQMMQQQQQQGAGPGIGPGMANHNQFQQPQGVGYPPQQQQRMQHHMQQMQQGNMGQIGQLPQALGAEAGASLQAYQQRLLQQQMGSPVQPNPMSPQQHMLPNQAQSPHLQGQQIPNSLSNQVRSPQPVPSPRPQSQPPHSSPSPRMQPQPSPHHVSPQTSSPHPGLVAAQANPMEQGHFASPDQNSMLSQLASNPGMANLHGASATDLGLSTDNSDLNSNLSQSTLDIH
T1 sequence (Q92793 whole entry, looked up): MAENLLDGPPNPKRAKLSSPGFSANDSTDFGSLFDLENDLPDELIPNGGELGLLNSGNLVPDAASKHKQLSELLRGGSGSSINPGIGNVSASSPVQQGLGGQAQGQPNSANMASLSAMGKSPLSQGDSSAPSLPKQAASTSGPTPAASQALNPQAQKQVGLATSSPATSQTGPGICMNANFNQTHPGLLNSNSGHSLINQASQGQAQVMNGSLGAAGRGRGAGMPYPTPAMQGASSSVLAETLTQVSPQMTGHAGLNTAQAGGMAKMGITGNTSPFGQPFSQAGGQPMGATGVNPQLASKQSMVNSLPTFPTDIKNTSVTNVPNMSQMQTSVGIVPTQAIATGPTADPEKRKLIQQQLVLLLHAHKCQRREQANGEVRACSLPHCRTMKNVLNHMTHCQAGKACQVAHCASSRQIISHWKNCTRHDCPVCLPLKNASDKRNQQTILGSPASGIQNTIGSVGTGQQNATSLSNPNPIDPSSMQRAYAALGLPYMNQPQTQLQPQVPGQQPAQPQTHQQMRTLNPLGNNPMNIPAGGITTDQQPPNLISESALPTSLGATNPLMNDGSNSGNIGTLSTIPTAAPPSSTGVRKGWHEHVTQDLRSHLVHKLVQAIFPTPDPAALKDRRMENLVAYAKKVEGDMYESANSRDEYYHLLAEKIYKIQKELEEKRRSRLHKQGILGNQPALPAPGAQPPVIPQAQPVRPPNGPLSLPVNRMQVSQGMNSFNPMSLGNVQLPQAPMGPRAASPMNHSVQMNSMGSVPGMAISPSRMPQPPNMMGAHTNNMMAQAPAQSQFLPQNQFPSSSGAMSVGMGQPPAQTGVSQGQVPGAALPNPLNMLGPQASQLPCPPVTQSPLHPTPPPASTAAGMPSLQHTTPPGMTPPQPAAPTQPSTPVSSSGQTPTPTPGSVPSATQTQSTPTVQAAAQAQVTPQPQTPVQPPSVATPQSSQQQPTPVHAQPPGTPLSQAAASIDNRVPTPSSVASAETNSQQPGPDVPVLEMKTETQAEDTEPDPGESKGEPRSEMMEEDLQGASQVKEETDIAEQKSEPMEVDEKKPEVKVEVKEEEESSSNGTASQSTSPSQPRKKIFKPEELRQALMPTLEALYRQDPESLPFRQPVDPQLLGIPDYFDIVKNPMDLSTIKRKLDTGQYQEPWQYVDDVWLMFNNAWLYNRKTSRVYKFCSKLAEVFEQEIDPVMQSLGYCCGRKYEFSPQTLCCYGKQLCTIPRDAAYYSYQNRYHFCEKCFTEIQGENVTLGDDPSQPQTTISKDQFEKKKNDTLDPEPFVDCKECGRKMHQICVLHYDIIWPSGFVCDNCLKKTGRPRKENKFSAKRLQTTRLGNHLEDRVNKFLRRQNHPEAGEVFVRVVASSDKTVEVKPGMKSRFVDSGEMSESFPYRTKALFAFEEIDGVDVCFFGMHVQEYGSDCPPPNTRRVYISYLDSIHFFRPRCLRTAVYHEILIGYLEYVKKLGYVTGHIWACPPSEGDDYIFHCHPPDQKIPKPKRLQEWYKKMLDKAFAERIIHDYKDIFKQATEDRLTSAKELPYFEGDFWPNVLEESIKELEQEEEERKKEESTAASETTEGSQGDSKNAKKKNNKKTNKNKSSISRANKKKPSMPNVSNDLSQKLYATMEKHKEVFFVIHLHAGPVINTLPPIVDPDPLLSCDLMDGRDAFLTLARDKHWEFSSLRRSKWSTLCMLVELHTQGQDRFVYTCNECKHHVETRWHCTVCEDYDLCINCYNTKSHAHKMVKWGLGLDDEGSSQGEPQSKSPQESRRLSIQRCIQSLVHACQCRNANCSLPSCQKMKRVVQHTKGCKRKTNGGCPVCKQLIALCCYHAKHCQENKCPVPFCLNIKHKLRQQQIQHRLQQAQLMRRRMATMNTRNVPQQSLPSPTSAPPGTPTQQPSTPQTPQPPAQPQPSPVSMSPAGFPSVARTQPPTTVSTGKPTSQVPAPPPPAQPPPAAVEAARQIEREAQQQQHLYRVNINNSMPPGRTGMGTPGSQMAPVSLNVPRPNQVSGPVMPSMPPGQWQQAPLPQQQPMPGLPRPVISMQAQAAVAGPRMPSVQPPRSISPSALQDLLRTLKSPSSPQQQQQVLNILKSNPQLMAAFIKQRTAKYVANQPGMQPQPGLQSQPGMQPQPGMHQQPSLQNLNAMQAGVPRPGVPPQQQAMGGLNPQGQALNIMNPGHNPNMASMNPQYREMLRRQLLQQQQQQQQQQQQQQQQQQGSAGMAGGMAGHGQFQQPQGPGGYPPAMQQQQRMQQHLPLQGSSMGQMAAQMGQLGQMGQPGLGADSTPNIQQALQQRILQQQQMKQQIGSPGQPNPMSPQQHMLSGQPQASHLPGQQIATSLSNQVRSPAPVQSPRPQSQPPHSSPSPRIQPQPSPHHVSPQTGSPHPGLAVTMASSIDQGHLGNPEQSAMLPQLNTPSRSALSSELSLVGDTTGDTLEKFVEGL

[7] = biological target: T1, CREB-binding protein/Histone acetyltransferase p300; assay: Inhibition of CBP/EP300 in human MOLM16 cells assessed as suppression of MCL1 expression at 5 uM measured after 4 hrs by RT-PCR analysis relative to DMSO control; assay type: cell-based
[8] = tested on: HL-60; assay: Antiproliferative activity against human HL60 cells measured after 6 days by CellTiter-Glo assay; assay type: functional, cell-based
[9] = Decrease in MYC mRNA expression in tumor of SCID beige mouse xenografted with human MOLM16 cells at 30 mg/kg, po administered twice daily via gavage as single dose measured after 2 hrs by RT-PCR analysis relative to control; assay type: functional, organism-based
[10] = Antitumor activity against human MOLM16 cells xenografted in SCID beige mouse assessed as tumor growth inhibition at 12.5 mg/kg, po BID administered through gavage for 21 days; assay type: functional; conditions: read-out: TGI

Q: Which results are given for CC(=O)N1CCc2c(c(Nc3ccc(-c4cnn(C)c4)cc3F)nn2[C@@H]2CCOC2)C1?
A: bioavailability [1]: 100%; INH [2]: > 10 µM; INH [3]: > 10 µM; INH [4]: > 10 µM; INH [5]: > 10 µM; inhibition [6]: Active; inhibition [7]: Active; Activity [8]: Active; inhibition [9]: 78%; inhibition in vivo at 12.5 mg/kg [10]: 46%
